Reference: patent US20240226115A1, “AXL INHIBITOR COMPOUNDS” (ARCUS BIOSCIENCES, INC., priority 2021, published 2024)

Target: T1, Axl (Homo sapiens, UniProt P30530)
T1 sequence (P30530 26-894): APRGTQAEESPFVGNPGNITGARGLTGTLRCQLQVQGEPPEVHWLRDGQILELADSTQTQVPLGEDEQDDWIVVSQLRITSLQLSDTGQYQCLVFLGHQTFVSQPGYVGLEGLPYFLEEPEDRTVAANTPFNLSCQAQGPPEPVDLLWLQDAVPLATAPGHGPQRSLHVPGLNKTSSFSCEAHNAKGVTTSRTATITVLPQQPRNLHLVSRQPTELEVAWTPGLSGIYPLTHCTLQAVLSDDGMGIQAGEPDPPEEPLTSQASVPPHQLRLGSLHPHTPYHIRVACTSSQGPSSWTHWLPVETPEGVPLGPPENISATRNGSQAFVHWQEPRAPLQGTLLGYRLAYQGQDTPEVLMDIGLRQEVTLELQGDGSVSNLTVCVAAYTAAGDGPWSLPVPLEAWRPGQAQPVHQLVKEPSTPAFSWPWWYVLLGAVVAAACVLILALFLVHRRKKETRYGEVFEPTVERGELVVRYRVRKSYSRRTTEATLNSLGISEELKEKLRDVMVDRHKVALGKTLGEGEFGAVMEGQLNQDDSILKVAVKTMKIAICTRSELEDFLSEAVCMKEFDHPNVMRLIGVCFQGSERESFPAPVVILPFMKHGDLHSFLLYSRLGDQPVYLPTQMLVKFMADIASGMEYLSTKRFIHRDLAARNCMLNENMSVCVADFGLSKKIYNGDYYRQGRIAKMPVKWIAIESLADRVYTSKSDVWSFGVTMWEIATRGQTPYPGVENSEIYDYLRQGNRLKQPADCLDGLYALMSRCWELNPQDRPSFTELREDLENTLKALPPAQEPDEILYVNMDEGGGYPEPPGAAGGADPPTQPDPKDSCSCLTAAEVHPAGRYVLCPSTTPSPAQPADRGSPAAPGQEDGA
Experiment: Axl NanoBRET intracellular kinase assay (Cell Binding)
Parameters: host or cells: HEK-293
Details: HEK-293 cells transfected with Axl-NanoLuc fusion vector; displacement of K-5 NanoBRET tracer
How it was run: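 HEK-293 cells transiently expressing Axl-NanoLuc fusion were pre-incubated with compound for 1 h at 37 °C (0.5% DMSO), then with 0.35 μM K-5 tracer for 2 h. Tracer displacement read as reduced BRET ratio (610/450 nm); IC50 from 4-parameter fit.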

Row | SMILES | IC50 [nM]
1 | O=C1NCCOc2cc(-c3n[nH]c4ncc(-c5ccc6c(c5)CCC(N5CCNCC5)CC6)cc34)ccc21 (stereo not shown) [Example 48, 8-{5-[7-(Piperazin-1-yl)-6,7,8,9-tetrahydro-5H-benzo[7]annulen-2-yl]-1H-pyrazolo[3,4-b]pyridin-3-yl}-2,3,4,5-tetrahydro-1,4-benzoxazepin-5-one] | 100 to 1000
2 | Cc1cc2c(cc1-c1n[nH]c3ncc(-c4ccc5c(c4)CCC(N4CCC[C@H]4C)CC5)cc13)OCCNC2=O (stereo partly drawn) [Example 40, 7-Methyl-8-(5-{7-[(2R)-2-methylpyrrolidin-1-yl]-6,7,8,9-tetrahydro-5H-benzo[7]annulen-2-yl}-1H-pyrazolo[3,4-b]pyridin-3-yl)-2,3,4,5-tetrahydro-1,4-benzoxazepin-5-one] | < 100
3 | CC1(O)CCOc2cc(-c3n[nH]c4ncc(-c5ccc6c(c5)CCN(C5CCCC5)CC6)cc34)ccc21 (stereo not shown) [Example 26, 7-[5-(3-Cyclopentyl-2,3,4,5-tetrahydro-1H-3-benzazepin-7-yl)-1H-pyrazolo[3,4-b]pyridin-3-yl]-4-methyl-3,4-dihydro-2H-1-benzopyran-4-ol] | 100 to 1000
4 | C[C@H]1CCCN1C1(C)CCc2ccc(-c3cnc4[nH]nc(-c5ccc6c(c5)OCCNC6=O)c4c3)cc2CC1 (stereo partly drawn) [Example 24, 8-(5-{7-Methyl-7-[(2S)-2-methylpyrrolidin-1-yl]-6,7,8,9-tetrahydro-5H-benzo[7]annulen-2-yl}-1H-pyrazolo[3,4-b]pyridin-3-yl)-2,3,4,5-tetrahydro-1,4-benzoxazepin-5-one] | < 100
5 | CC1(C)COc2cc(-c3n[nH]c4ncc(-c5ccc6c(c5)CCC(N5CCCC5)CC6)cc34)ccc2C(=O)N1 (stereo not shown) [Example 35, 3,3-Dimethyl-8-{5-[7-(pyrrolidin-1-yl)-6,7,8,9-tetrahydro-5H-benzo[7]annulen-2-yl]-1H-pyrazolo[3,4-b]pyridin-3-yl}-2,3,4,5-tetrahydro-1,4-benzoxazepin-5-one] | < 100
6 | C[C@@H]1CNC(=O)c2ccc(-c3n[nH]c4ncc(-c5ccc6c(c5)CCC(N5CCC[C@H]5C)CC6)cc34)cc2O1 (stereo partly drawn) [Example 59, (2R)-2-Methyl-8-(5-{7-[(2R)-2-methylpyrrolidin-1-yl]-6,7,8,9-tetrahydro-5H-benzo[7]annulen-2-yl}-1H-pyrazolo[3,4-b]pyridin-3-yl)-2,3,4,5-tetrahydro-1,4-benzoxazepin-5-one] | < 100
7 | CC1(O)CCCOc2cc(-c3n[nH]c4ncc(-c5ccc6c(c5)CCN(C5CCCC5)CC6)cc34)ccc21 (stereo not shown) [Example 28, (8-[5-(3-Cyclopentyl-2,3,4,5-tetrahydro-1H-3-benzazepin-7-yl)-1H-pyrazolo[3,4-b]pyridin-3-yl]-5-methyl-2,3,4,5-tetrahydro-1-benzoxepin-5-ol)] | 100 to 1000
8 | O=C1NCCOc2cc(-c3n[nH]c4ncc(-c5ccc6c(c5)CCN(C(=O)C5CC5)CC6)cc34)ccc21 [Example 17, 8-[5-(3-Cyclopropanecarbonyl-2,3,4,5-tetrahydro-1H-3-benzazepin-7-yl)-1H-pyrazolo[3,4-b]pyridin-3-yl]-2,3,4,5-tetrahydro-1,4-benzoxazepin-5-one] | 100 to 1000
9 | C[C@@H]1CCCN1C1CCc2ccc(-c3cnc4[nH]nc(-c5ccc6c(c5F)OCCNC6=O)c4c3)cc2CC1 (stereo partly drawn) [Example 60, 9-Fluoro-8-(5-{7-[(2R)-2-methylpyrrolidin-1-yl]-6,7,8,9-tetrahydro-5H-benzo[7]annulen-2-yl}-1H-pyrazolo[3,4-b]pyridin-3-yl)-2,3,4,5-tetrahydro-1,4-benzoxazepin-5-one] | < 100
10 | O=C1NCCOc2cc(-c3n[nH]c4ncc(-c5ccc6c(c5)CCN(C5CC5)C6)cc34)ccc21 [Example 21, 8-(5-(2-Cyclopropyl-1,2,3,4-tetrahydroisoquinolin-6-yl)-1H-pyrazolo[3,4-b]pyridin-3-yl)-3,4-dihydrobenzo[f][1,4]oxazepin-5(2H)-one] | 100 to 1000
